# Assay results as given in patent US8686113B2 (priority 2009, dated 2014).
# Read-outs that look alike come from different tables or passages of the source. Non-standard residues stand in square brackets, D forms with d. Residues, ends and D or L forms follow the SMILES beside them. Hyp = O=C(O)[C@@H]1C[C@@H](O)CN1; Tle = CC(C)(C)[C@H](N)C(=O)O; Orn = NCCC[C@H](N)C(=O)O
# What was measured:
# E. coli BL21 A1 = assay type: cell-based, Escherichia coli; conditions: BL21, 20 h
# Procedure, shortened: (§1)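 Broth microdilution in 1% TSB with twofold peptide series, final 128 μg/mL to 62.5 ng/mL, against 5×10^6 bacteria/mL stock suspension added 1:1. Incubated 20 h at 37 °C, growth read by absorbance at 595 nm; MIC is the lowest concentration with no growth, determined in triplicate.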
# M. luteus 10240 = assay: Growth inhibition assay (microdilution MIC); assay type: cell-based, Micrococcus luteus; conditions: 10240, 20 h
# Procedure, shortened: as §1
# E. coli 045-849 SENTRY = conditions: ¼ Muller-Hinton medium
# E. coli ATCC BAA-457 = conditions: ¼ Muller-Hinton medium
# E. coli D31 J. Wilson = conditions: ¼ Muller-Hinton medium
# K. pneumoniae ATCC 27799 = conditions: ATCC 27799
# [1] = tested on: K. pneumoniae K6 ATCC 700603; conditions: ATCC 700603
# [2] = tested on: P. aeruginosa 10 J. Wilson
# [3] = tested on: S. typhimurium ATCC 14028
# [4] = tested on: S. typhimurium ATCC 700408
# [5] = tested on: S. typhimurium s5 (J. Weiser); conditions: ¼ Muller-Hinton medium
# [6] = mouse, serum, Half-life in 25% mouse serum, 25% aqueous mouse serum, 37° C., 75 μg/mL peptide
# [7] = mouse, serum
# [8] = Stability against bacterial proteases in E. coli lysate; assay type: in vitro ADME; conditions: E. coli lysate with 0.5 mg/mL protein concentration; for remaining at 4 h, 0.15 μg/mL: E. coli BL21 A1 lysate (bacterial proteases), pH 7.4, read-out: percentage printed under half-life >240 min (peptide remaining)
# Procedure: (§2) For the bacterial lysate, 500 mL of nutrient broth (Carl Roth GmbH+Co. KG, Karlsruhe) was inoculated with E. coli BL21 A1 and incubated overnight at 37° C. 2×250 mL bacterial suspension were centrifuged for 25 min at 5000 rpm and 4° C. in a Beckman Avanti™ J-20-XP centrifuge with JLA-10.500 rotor (Beckman Coulter, Fullerton, U.S.A.). The pellets were each suspended in 30 mL PBS (pH 7.4) and centrifuged again in a Beckman Allegra™ 2IR centrifuge (Beckman Coulter, Fullerton, U.S.A.). The pellets were each suspended in 10 mL PBS and were disrupted with ultrasound (Vibra-cell™ microtip, Fisher Bioblock Scientific, Illkirch, France) 2×5 min (750 W; amplitude 40%; 2 s on/3 s off) on ice. The bacterial lysates were combined and 1 mL aliquots were centrifuged at 15400 rpm for 20 min at 4° C. (Beckman Allegra™). The supernatants were removed and stored at −20° C. The protein content of the bacterial lysate was determined by protein determination according to Bradford.
# (§3) A solution of 0.15 μg/mL peptide in bacterial lysate with protein content of 1.5 mg/mL or 0.5 mg/mL was incubated at 37° C. After 0, 30, 60, 120, 240 or 360 min, 200 μL was taken from each and the proteins were precipitated with 50 μL of 15% trichloroacetic acid. Then it was incubated for 10 min at 4° C. and then centrifuged for 5 min at 13000 rpm in a Minispin desktop centrifuge. 210 μL was taken from the supernatant and neutralized with 1 mol/L sodium hydroxide solution. The intact peptide and the degradation products were analyzed by HPLC. 60 μL of 3% aqueous acetonitrile with 0.1% trifluoroacetic acid (TFA) was added to the solution and 250 μL of the mixture was injected. After chromatographic separation, the constituents were identified by MALDI-TOF-MS,
# (§4) In order to investigate the stability against bacterial proteases, a lysate was prepared from an overnight culture of E. coli BL21 A1 and the peptides were incubated in it. Using Bradford protein determination, the protein concentration was adjusted to 0.5 or 1.5 mg/mL.
# [9] = tested on: Escherichia coli DSM 10233
# Procedure: (§5) The minimum inhibitory concentrations (MIC) of the antimicrobial peptides and peptide derivatives were determined in microdilution assays. These used a continuous peptide dilution in sterile flat-bottomed 96-well microtiter plates (polystyrene, Greiner Bio-One GmbH, Frickenhausen, Germany) and a total volume of 100 μL per well. The aqueous peptide or peptidomimetic solutions were diluted with 1% TSB water, to obtain a final concentration of 256 μg/mL. 50 μL of the peptide or peptidomimetic solution was pipetted into the first well of each series and stirred. From this solution, 50 μL was transferred to the second well, stirred and again 50 μL was transferred to the next well, and so on. A double dilution series is obtained, beginning at 256 μg/mL in the first well to 125 ng/mL in the twelfth well. The bacteria, e.g. E. coli BL21 A1, were cultured overnight at 37° C. in nutrient broth (NB, Carl Roth GmbH+Co. KG, Karlsruhe, Germany). 50 μL of a 5×10^6 bacteria/mL suspension in 1% TSB was added to each well of the microtiter plate and thus a final concentration of the peptides or peptidomimetics from 128 μg/mL (well 1) to 62.5 ng/mL (well 12) was established in each series. The plates were incubated at 37° C. for 20 h and then the absorption was measured at 595 nm with a TECAN microtiter plate spectrophotometer (Tecan Trading AG, Mannedorf, Switzerland). The MIC values of all peptides and peptidomimetics were determined in triplicate. Sterile water was used as negative control.
# (§6) The peptides shown in Table 8 were investigated for their MIC against pathogenic bacteria such as E. coli DSM 10233, K. pneumoniae DSM 681 and P. aeruginosa DSM 3227.
# [10] = tested on: Klebsiella pneumoniae DSM 681
# Procedure: as §5, §6
# [11] = tested on: Pseudomonas aeruginosa DSM 3227
# Procedure: as §5, §6
# [12] = tested on: bacterial proteases (E. coli BL21 A1 lysate); assay: Stability against bacterial proteases in E. coli lysate; assay type: in vitro ADME; conditions: E. coli lysate with 0.5 mg/mL protein concentration, 37° C.
# Procedure: as §2, §3, §4
# [13] = 25% aqueous mouse serum, 37° C., 75 μg/mL peptide
# 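Wherever Half-life in 25% mouse serum is given: intact peptide left at successive time points measured by reversed-phase HPLC with an acetonitrile gradient in the supernatant after precipitation of serum proteins.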
Compound,MIC E. coli BL21 A1 (E. coli BL21 A1) [µg/mL],MIC M. luteus 10240 (M. luteus 10240) [µg/mL],MIC E. coli 045-849 SENTRY (E. coli 045-849 SENTRY) [µg/mL],MIC E. coli SEQ 102ATCC # BAA-4 57 (E. coli ATCC BAA-457) [µg/mL],MIC E. coli D31 J. Wilson (E. coli D31 J. Wilson) [µg/mL],MIC K. pneumoniae 012-3131 (K. pneumoniae 012-3131) [µg/mL],MIC K. pneumoniae ATCC 27799 (K. pneumoniae ATCC 27799) [µg/mL],MIC K. pneumoniae K6 ATCC 700603 [1] [µg/mL],MIC P. aeruginosa 10 J. Wilson [2] [µg/mL],MIC P. aeruginosa 39324 (P. aeruginosa 39324) [µg/mL],MIC S. saprophyticus 15305 (S. saprophyticus 15305; 15305) [µg/mL],MIC S. typhimurium ATCC 14028 [3] [µg/mL],MIC S. typhimurium ATCC 700408 [4] [µg/mL],MIC S. typhimurium s5 (J. Weiser) [5] [µg/mL],half-life [7] [min],"remaining at 4 h, 0.15 μg/mL [8] [%]",MIC E. coli DSM 10233 [9] [µg/mL],MIC K. pneumoniae DSM 681 [10] [µg/mL],MIC P. aeruginosa DSM 3227 [11] [µg/mL],Half-life in E. coli lysate [12] [min],other results
CC[C@H](C)[C@H](NC(=O)[C@H](CCCNC(=N)N)NC(=O)[C@H](CCCNC(=N)N)NC(=O)[C@@H]1C[C@@H](O)CN1C(=O)[C@@H]1CCCN1C(=O)[C@H](CCCNC(=N)N)NC(=O)[C@@H]1CCCN1C(=O)[C@H](CCCNC(=N)N)NC(=O)[C@@H]1CCCN1C(=O)[C@H](CC(C)C)NC(=O)[C@H](Cc1ccc(O)cc1)NC(=O)[C@@H]1CCCN1C(=O)[C@@H]1CCCN1C(=O)[C@H](CCCCN)NC(=O)[C@H](CC(=O)O)NC(=O)[C@@H](N)C(C)C)C(=O)N[C@@H](Cc1ccc(O)cc1)C(=O)N[C@@H](CC(N)=O)C(=O)N[C@@H](CCCNC(=N)N)C(N)=O [compound 24] (H-VDKPPYLPRPRP[Hyp]RRIYNR-NH2),8,8,2,4,1,2,8,8,2,4,16,2,0.13,2,35,–,–,–,–,–,MIC P. mirabilis ATCC 7002 (P. mirabilis ATCC 7002; ATCC 7002): 128 µg/mL; MIC P. vulgaris ATCC 6896 (P. vulgaris ATCC 6896; ATCC 6896): 128 µg/mL; half-life [6]: 60 min
CC[C@H](C)[C@H](NC(=O)[C@@H]1C[C@@H](O)CN1C(=O)[C@H](CCCNC(=N)N)NC(=O)[C@@H]1C[C@@H](O)CN1C(=O)[C@@H]1CCCN1C(=O)[C@H](CCCNC(=N)N)NC(=O)[C@@H]1CCCN1C(=O)[C@H](CCCNC(=N)N)NC(=O)[C@@H]1CCCN1C(=O)[C@H](CC(C)C)NC(=O)[C@H](Cc1ccc(O)cc1)NC(=O)[C@@H]1CCCN1C(=O)[C@@H]1CCCN1C(=O)[C@H](CCCCN)NC(=O)[C@H](CC(=O)O)NC(=O)[C@@H](N)C(C)C)C(=O)N[C@@H](Cc1ccc(O)cc1)C(=O)N[C@@H](CC(N)=O)C(=O)N[C@@H](CCCN)C(N)=O [compound 108] (H-VDKPPYLPRPRP[Hyp]R[Hyp]IYN[Orn]-NH2),2,32,–,–,–,–,–,–,–,–,–,–,–,–,150,60,1,2,16 to 32,–,half-life ([8]; 37° C.): > 240 min
CC[C@H](C)[C@H](NC(=O)[C@H](CCCN)NC(=O)[C@H](CCCNC(=N)N)NC(=O)[C@@H]1CCCN1C(=O)[C@@H]1CCCN1C(=O)[C@H](CCCNC(=N)N)NC(=O)[C@@H]1CCCN1C(=O)[C@H](CCCNC(=N)N)NC(=O)[C@@H]1CCCN1C(=O)[C@H](CC(C)C)NC(=O)[C@H](Cc1ccc(O)cc1)NC(=O)[C@@H]1CCCN1C(=O)[C@@H]1CCCN1C(=O)[C@H](CCCCN)NC(=O)[C@H](CC(=O)O)NC(=O)[C@@H](N)C(C)C)C(=O)N[C@@H](Cc1ccc(O)cc1)C(=O)N[C@@H](CC(N)=O)C(=O)N[C@@H](CCCN)C(N)=O [compound 72] (H-VDKPPYLPRPRPPR[Orn]IYN[Orn]-NH2),–,–,–,–,–,–,–,–,–,–,–,–,–,–,175,–,32,4,>32,125,Half-life in 25% mouse serum [13]: >360 min
H-GKPRPYSPRPTSHPRPIRV-OH [compound 89],4,–,2,2,4,4,8,8,16,32,>64,8,0.5,1,–,–,–,–,–,–,MIC P. mirabilis ATCC 7002 (P. mirabilis ATCC 7002; ¼ Muller-Hinton medium): >; MIC P. vulgaris ATCC 6896 (P. vulgaris ATCC 6896; ¼ Muller-Hinton medium): >
H-GNNRPVYIPQPRPPHPRL-OH [compound 87],2,–,0.5,1,1,16,4,16,32,64,–,0.5,0.13,0.5,–,–,–,–,–,–,MIC P. mirabilis ATCC 7002 (P. mirabilis ATCC 7002; ¼ Muller-Hinton medium): >; MIC P. vulgaris ATCC 6896 (P. vulgaris ATCC 6896; ¼ Muller-Hinton medium): >; MIC S. saprophyticus 15305 (S. saprophyticus 15305; ¼ Muller-Hinton medium): >
CC(C)C[C@H](NC(=O)[C@H](Cc1ccc(O)cc1)NC(=O)[C@@H]1CCCN1C(=O)[C@@H]1CCCN1C(=O)[C@H](CCCCN)NC(=O)[C@H](CC(=O)O)NC(=O)[C@@H](N)C(C)C)C(=O)N1CCC[C@H]1C(=O)N[C@@H](CCCNC(=N)N)C(=O)N1CCC[C@H]1C(=O)N[C@@H](CCCNC(=N)N)C(=O)N1CCC[C@H]1C(=O)N1CCC[C@H]1C(=O)N[C@@H](CCCNC(=N)N)C(=O)N[C@@H](CCCN)C(=O)N[C@H](C(=O)N[C@@H](Cc1ccc(O)cc1)C(=O)N[C@@H](CC(N)=O)C(=O)N[C@@H](CCCN)C(N)=O)C(C)(C)C [compound 109] (H-VDKPPYLPRPRPPR[Orn][Tle]YN[Orn]-NH2),4,4,–,–,–,–,–,–,–,–,–,–,–,–,130,90,–,–,–,>240,–
